Laboratory results from publication PMC10266688 (PLOS ONE, 2023).
Like-named read-outs stand apart in the source and are kept apart here.

Legend:
[1] = Single dose pharmacokinetics in CD1 mice (IV, IP, PO), plasma LC-MS/MS; format: in vivo, mouse; conditions: for Plasma concentration: individual (Group A)
Description: For single dose pharmacokinetic studies, plasma samples (40 μL) were mixed with 200 μL of a water-methanol mixture 1:9, v/v containing the internal standard elacridar at 400 ng/mL. After mixing by pipetting and centrifuging for 4 min at 6000 rpm, 1 μL of each supernatant was injected into LC-MS/MS system. […] Mobile phase A was acetonitrile/water (5:95, v/v) containing 1% formic acid, and mobile phase B was acetonitrile containing 0.1% formic acid. The gradient was initiated with mobile phase B at 15% and was held at 15% for 0.9 minutes with a flow rate of 0.4 mL/min, then increased to 100% and held for 0.1 minutes, and finally returned back to 15% mobile phase B and allowed to equilibrate until 2.2 minutes. […] The lower limit of quantitation (LLOQ) in plasma was 50 ng/mL.
Pharmacokinetic parameters were calculated from mean concentration-time data using non-compartmental methods in Phoenix WinNonlin version 8.3 (Certara, Princeton, NJ). Concentrations after the time 0 sample that were below the LLOQ were imputed with ½ that value. Any concentration that was determined to be an outlier by the Grubbs’s outlier test were excluded from analysis. The maximum plasma concentration (Cmax) and time to Cmax (Tmax) were the observed values. The AUClast was calculated using the log-linear trapezoidal method. AUC was extrapolated to infinity (AUCINF) by dividing the last quantifiable concentration by the terminal disposition rate constant (λz). The λz was determined from at least 3 points on the slope of the terminal phase of the concentration-time profile. The terminal half-life (T1/2) was determined by dividing 0.693 by λz. Apparent clearance (Cl/F) was calculated by dividing the dose administered by AUCINF. Apparent volume of distribution (V/F) was calculated by dividing Cl/F by λz. […] The oral and IP bioavailability was calculated as: F(%)={DoseIV×AUC(0−∞)PO/DosePO×AUC(0−∞)IV}.100%
The Method of Bailer was used to estimate the variance of AUC given the calculated variance of the mean concentration at each time point. […]. In all cases, p < 0.05 was considered statistically significant.
This was followed by a more detailed pharmacokinetic study, in which CD1 (n = 4; […]. Nine time points for IV and IP (5, 15, 30, 60, 120, 240, 360, 480 and 1440 min) and eight time points for PO (15, 30, 60,120, 240, 360, 480 and 1440 min) administration were set for this pharmacokinetic study. Each of the time point treatment group included 4 animals. Mice were injected IP with 2,2,2-tribromoethanol (150 mg/kg) prior to drawing the blood in microtainers containing K3EDTA via retro-orbital bleeding. Blood samples were centrifuged 10 min at 3000 rpm. Brain samples (right lobe) were collected and weighted. All samples were immediately processed, flash-frozen and stored at -70°C until subsequent analysis. […] Pharmacokinetic parameters were calculated from mean concentration-time data using non-compartmental methods in Phoenix WinNonlin version 8.3 (Certara, Princeton, NJ)). Using the Method of Bailer, there was no different in dose normalized AUClast by any route of administration (S17 Table).

[2] = mouse, in vivo, iv, 20 mg/kg
Description: The mice were divided into three groups consisting of three female CD1 mice each. […] Terminal blood sampling for hematological and serum biochemical analysis was performed on Day 7 of the study, 24 h after the last dosing. […] Terminal bleeding and euthanasia were performed on Day 7, 24 h after the third dosing. Blood collection was carried out after 6 h fasting. Animals were injected IP with 2,2,2-tribromoethanol (200 mg/kg) and the blood was collected from orbital sinuses into dry microtainers without anticoagulant. For the serum collection, the tubes with collected blood were held at RT for 15–60 min after blood drawing to form a clot, and then were centrifuged at 9000 rpm for 20 min at 4°C. The collected serum was frozen within 60–80 min after blood drawing and was stored at -20°C for further clinical chemistry analysis. For the hematological study, 25 μL of fresh blood was quickly mixed with an equal volume of 0.36% solution of K2EDTA in saline. Assessment of the hematological parameters was performed using the BIO TE hematology analyzer MCL-3124 and consumable reagents (Cormay) within 2 h of the blood draw. For clinical chemistry analyses, ASAT, ALAT, ALP, LDH, GGT, CK, Creatinine, Urea and TP were determined in the serum using commercial kits according to the manufacturer’s instructions.

[3] = system: ES2-luc human ovarian tumor; assay: ES2-luc xenograft model, nude mice; format: in vivo, mouse; conditions: 10 mg/kg IP every 3 days
Description: Female Nude mice were inoculated IP with 1x10^6 ES2-luc in 100 μL PBS. At day 3, mice were imaged for basal level luminescence activity with a Xenogen IVIS 200 after IP injection with luciferin (0.3 mg in 100 μL water). Mice were randomized into groups and treated IP with compounds or vehicle (25% (w/v) β-Hydroxypropylcyclodextrin in water), and imaged again on days indicated.
Briefly mice were injected IP with ES2-luc cells, as ovarian cancer primarily spreads through the peritoneum, and it is the origin of primary peritoneal cancer. After four days, these mice were injected IP with luciferin and bioluminescence imaged by IVIS imager as a surrogate of tumor burden. […] Bioluminescent imaging was performed by IVIS 12 and 21 days later.
A-C) Female nude mice were inoculated IP with ES2-luc cells, a human ovarian cancer line expressing luciferase. […] The IP tumor tissue and electroporated normal muscle tissue, being spatially distinct, were identified with separate regions of interest (ROI) after simultaneous imaging with IVIS.

[4] = CD-1, mouse, in vivo, ip, 20 mg/kg, Plasma concentration
[5] = CD-1, mouse, in vivo, ip, 20 mg/kg, Plasma concentration, Mean
[6] = male CD1 mice, IV 5 mg/kg, 0 min
[7] = male, CD1, mouse, in vivo, ip, 20 mg/kg
[8] = male, CD1, mouse, in vivo, iv, 5 mg/kg
[9] = male, CD1, mouse, in vivo, iv, 5 mg/kg, Plasma concentration
[10] = male, CD1, mouse, in vivo, iv, 5 mg/kg, Plasma concentration, Mean
[11] = male, CD1, mouse, in vivo, po, 50 mg/kg
[12] = male, CD-1, mouse, in vivo, po, 50 mg/kg, Plasma concentration
[13] = male, CD-1, mouse, in vivo, po, 50 mg/kg, Plasma concentration, Mean

Q: With `N#Cc1ccc(/C=C2/C(=O)/C(=C/c3ccc(C#N)cc3)C23CCNCC3)cc1` [Up284] as the molecule, how does the “time to clear from the bloodstream to a low steady state” value ([1]; CD1, mouse, in vivo) read?
A: 2 to 4 h

Q: And the concentration at 15 min [1, 4]?
A: 2480 ng/mL

Q: What about the concentration at 60 min [1, 4] of the same molecule?
A: 2400 ng/mL

Q: And the concentration at 120 min [1, 4]?
A: 1950 ng/mL

Q: And the concentration at 240 min [1, 4]?
A: 1540 ng/mL

Q: And the concentration at 1440 min [1, 4]?
A: 750 ng/mL

Q: What about the concentration at 5 min [1, 5] of the same molecule?
A: 899 ng/mL

Q: And the concentration at 15 min [1, 5]?
A: 2180 ng/mL

Q: What about the concentration at 30 min [1, 5] of the same molecule?
A: 2460 ng/mL

Q: What about the concentration at 60 min [1, 5] of the same molecule?
A: 2400 ng/mL

Q: What about the concentration at 120 min [1, 5] of the same molecule?
A: 2140 ng/mL

Q: And the concentration at 240 min [1, 5]?
A: 1740 ng/mL

Q: And the concentration at 360 min [1, 5]?
A: 789 ng/mL

Q: And the concentration at 480 min [1, 5]?
A: 731 ng/mL

Q: What about the concentration at 1440 min [1, 5] of the same molecule?
A: 610 ng/mL

Q: And the “Plasma concentration, Mean” value ([1]; CD-1 mice, IP 20 mg/kg, 0 min)?
A: BQL

Q: What about the Plasma concentration ([1]; CD-1 mice, IP 20 mg/kg, 0 min) of the same molecule?
A: BQL

Q: What about the “Plasma concentration, Mean” value ([1]; CD-1 mice, PO 50 mg/kg, 0 min) of the same molecule?
A: BQL

Q: What about the Plasma concentration ([1]; CD-1 mice, PO 50 mg/kg, 0 min) of the same molecule?
A: BQL

Q: And the “adverse effects during PK study” value ([1]; IV 5, IP 20, PO 50 mg/kg)?
A: No obvious adverse effects

Q: And the “dose normalized AUClast by route of administration” value ([1]; Method of Bailer)?
A: no different

Q: And the “Plasma concentration, Mean” value [1, 6]?
A: BQL

Q: What about the Plasma concentration [1, 6] of the same molecule?
A: BQL

Q: And the Plasma concentration ([1]; male CD1 mice, IV 5 mg/kg, 1440 min, class symbol)?
A: BQL

Q: And the AUC(0-inf) [1, 7]?
A: 69500 ng·h/mL

Q: And the AUC(0-t) [1, 7]?
A: 23000 ng·h/mL

Q: What about the Cmax [1, 7] of the same molecule?
A: 2460 ng/mL

Q: And the Tmax [1, 7]?
A: 0.5 h

Q: What about the bioavailability [1, 7] of the same molecule?
A: 78%

Q: And the half-life [1, 7]?
A: 52.8 h

Q: And the k el [1, 7]?
A: 3.65e-06 s⁻¹

Q: What about the AUC(0-inf) [1, 8] of the same molecule?
A: 9770 ng·h/mL

Q: And the AUC(0-t) [1, 8]?
A: 6580 ng·h/mL

Q: And the Cmax [1, 8]?
A: 1510 ng/mL

Q: And the Vd [1, 8]?
A: 10 L/kg

Q: What about the half-life [1, 8] of the same molecule?
A: 19 h

Q: And the k el [1, 8]?
A: 1.01e-05 s⁻¹

Q: And the concentration at 5 min [1, 9]?
A: 1620 ng/mL

Q: What about the concentration at 15 min [1, 9] of the same molecule?
A: 1500 ng/mL

Q: What about the concentration at 30 min [1, 9] of the same molecule?
A: 1530 ng/mL

Q: And the concentration at 60 min [1, 9]?
A: 793 ng/mL

Q: And the concentration at 120 min [1, 9]?
A: 670 ng/mL

Q: And the concentration at 240 min [1, 9]?
A: 504 ng/mL

Q: What about the concentration at 360 min [1, 9] of the same molecule?
A: 256 ng/mL

Q: And the concentration at 5 min [1, 10]?
A: 1450 ng/mL

Q: What about the concentration at 15 min [1, 10] of the same molecule?
A: 1510 ng/mL

Q: What about the concentration at 30 min [1, 10] of the same molecule?
A: 1260 ng/mL

Q: And the concentration at 60 min [1, 10]?
A: 800 ng/mL

Q: What about the concentration at 120 min [1, 10] of the same molecule?
A: 669 ng/mL

Q: And the concentration at 240 min [1, 10]?
A: 421 ng/mL

Q: What about the concentration at 360 min [1, 10] of the same molecule?
A: 238 ng/mL

Q: What about the concentration at 480 min [1, 10] of the same molecule?
A: 190 ng/mL

Q: And the concentration at 1440 min [1, 10]?
A: 116 ng/mL

Q: What about the AUC(0-inf) [1, 11] of the same molecule?
A: 22800 ng·h/mL

Q: And the AUC(0-t) [1, 11]?
A: 15100 ng·h/mL

Q: What about the Cmax [1, 11] of the same molecule?
A: 1830 ng/mL

Q: And the Tmax [1, 11]?
A: 0.25 h

Q: What about the bioavailability [1, 11] of the same molecule?
A: 23%

Q: And the half-life [1, 11]?
A: 12.7 h

Q: What about the k el [1, 11] of the same molecule?
A: 1.51e-05 s⁻¹

Q: What about the concentration at 30 min [1, 12] of the same molecule?
A: 1460 ng/mL

Q: And the concentration at 60 min [1, 12]?
A: 1560 ng/mL

Q: What about the concentration at 120 min [1, 12] of the same molecule?
A: 1650 ng/mL

Q: What about the concentration at 360 min [1, 12] of the same molecule?
A: 318 ng/mL

Q: And the concentration at 15 min [1, 13]?
A: 1830 ng/mL

Q: And the concentration at 30 min [1, 13]?
A: 1280 ng/mL

Q: And the concentration at 60 min [1, 13]?
A: 1430 ng/mL

Q: What about the concentration at 120 min [1, 13] of the same molecule?
A: 1220 ng/mL

Q: What about the concentration at 240 min [1, 13] of the same molecule?
A: 798 ng/mL

Q: What about the concentration at 360 min [1, 13] of the same molecule?
A: 473 ng/mL

Q: What about the concentration at 480 min [1, 13] of the same molecule?
A: 589 ng/mL

Q: And the concentration at 1440 min [1, 13]?
A: 425 ng/mL

Q: And the concentration at 240 min ([1]; male, mouse, in vivo, CD-1 mice, PO 50 mg/kg, 240 min, individual (Groups A-D), read-out: Plasma concentration)?
A: 366 ng/mL

Q: What about the concentration at 480 min ([1]; male, mouse, in vivo, CD-1 mice, PO 50 mg/kg, 480 min, individual (Groups A-D), read-out: Plasma concentration) of the same molecule?
A: 376 ng/mL

Q: And the concentration at 5 min ([1]; mouse, in vivo, CD-1 mice, IP 20 mg/kg, 5 min, individual (Groups A-D), read-out: Plasma concentration)?
A: 1060 ng/mL

Q: What about the bioavailability ([1]; mouse, plasma, intraperitoneal, CD1 mice, IP 20 mg/kg vs IV 5 mg/kg, read-out: IP bioavailability) of the same molecule?
A: 87%

Q: What about the bioavailability ([1]; mouse, plasma, CD1 mice, PO 50 mg/kg vs IV 5 mg/kg, read-out: oral bioavailability) of the same molecule?
A: 23%

Q: And the “other blood parameters vs vehicle” value [2]?
A: did not significantly change

Q: What about the “ES2-luc xenograft tumor burden (bioluminescence) vs vehicle” value ([3]; days 12 and 21, p = 0.0002) of the same molecule?
A: significantly reduced

Q: What about the “overall survival vs vehicle” value ([3]; p = 0.005) of the same molecule?
A: increased overall survival
